Measured values published in article PMC8857453 (Biotechnology Reports, 2022).
Where two headings read alike, the source gives them in different places.

Key:
Aps-t [1] = conditions: 50 mM MES pH 6, 100 mM NaCl, 1 mM MgCl2, 37 °C; pNPP stock in 0.1 M sodium acetate pH 4.5
Aps-t [2] = system: Aps-t

SMILES | Km (Aps-t [1]) [µM] | Km (Aps-t [2]) [µM]
O=[N+]([O-])c1ccc(OP(=O)(O)O)cc1 [pNPP] | 94 ± 14 | –
Nc1ncnc2c1ncn2[C@@H]1O[C@H](COP(=O)(O)O)[C@@H](O)[C@H]1O [AMP] | – | 270 ± 20
Nc1ncnc2c1ncn2[C@@H]1O[C@H](COP(=O)(O)OP(=O)(O)O)[C@@H](O)[C@H]1O [ADP] | – | 190 ± 10
Nc1ncnc2c1ncn2[C@@H]1O[C@H](COP(=O)(O)OP(=O)(O)OP(=O)(O)O)[C@@H](O)[C@H]1O [ATP] | – | 1000 ± 120
